From ChEMBL document CHEMBL1201862, “PubChem BioAssay data set” (2004)
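Assay format: 96-well plates, 48-hour exposure. Abbreviation: GI50, concentration required for 50% inhibition of growth.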 Calls of active or inactive are those of the source. Cut-off read from the data, not from the text of the source: active = GI50 up to about 1.1 µM and inactive = higher.

Key:
Assay in all cases: NCI-60 cell line screen, 48 h
SK-MEL-28 = test system: SK-MEL-28
NCI-H522 = test system: NCI-H522
HOP-62 = test system: HOP-62
RXF 393 = test system: RXF 393
U-251 = test system: U-251
786-0 = test system: 786-0
UO-31 = test system: UO-31
SK-MEL-2 = test system: SK-MEL-2
NCI/ADR-RES = test system: NCI/ADR-RES
Malme-3M = test system: Malme-3M
MCF7 = test system: MCF7
DU-145 = test system: DU-145
MDA-MB-231 = test system: MDA-MB-231
CAKI-1 = test system: CAKI-1
LOX IMVI = test system: LOX IMVI
HL-60 = test system: HL-60
HCC 2998 = test system: HCC 2998
ACHN = test system: ACHN
HOP-92 = test system: HOP-92
A549 = test system: A549
SNB-19 = test system: SNB-19
SK-OV-3 = test system: SK-OV-3
EKVX = test system: EKVX
UACC-62 = test system: UACC-62
SNB-75 = test system: SNB-75
HCT-116 = test system: HCT-116
NCI-H23 = test system: NCI-H23
SR = test system: SR
SN12C = test system: SN12C
SW-620 = test system: SW-620
SF-268 = test system: SF-268
T47D = test system: T47D
OVCAR-3 = test system: OVCAR-3
OVCAR-5 = test system: OVCAR-5
NCI-H226 = test system: NCI-H226
SF-539 = test system: SF-539
TK-10 = test system: TK-10
HCT-15 = test system: HCT-15
SK-MEL-5 = test system: SK-MEL-5
K562 = test system: K562
COLO 205 = test system: COLO 205
MOLT-4 = test system: MOLT-4
CCRF-CEM = test system: CCRF-CEM
M14 = test system: M14
MDA-MB-435 = test system: MDA-MB-435
OVCAR-4 = test system: OVCAR-4
A498 = test system: A498
OVCAR-8 = test system: OVCAR-8
NCI-H460 = test system: NCI-H460
KM12 = test system: KM12
IGROV-1 = test system: IGROV-1
SF-295 = test system: SF-295
UACC-257 = test system: UACC-257
RPMI-8226 = test system: RPMI-8226
Hs-578T = test system: Hs-578T
PC-3 = test system: PC-3
HT-29 = test system: HT-29

## CC(C)(C)[Si](C)(C)OCC1OC(n2cnc3c(NC(=O)c4ccccc4)ncnc32)CC1O (configuration not stated)
SK-MEL-28
  GI50: 36.7 µM (inactive)
NCI-H522
  GI50: 14.4 µM (inactive)
HOP-62
  GI50: 19 µM (inactive)
RXF 393
  GI50: 22.3 µM (inactive)
U-251
  GI50: 20.5 µM (inactive)
786-0
  GI50: 21.4 µM (inactive)
UO-31
  GI50: 1.47 µM (inactive)
SK-MEL-2
  GI50: 27.2 µM (inactive)
NCI/ADR-RES
  GI50: 38.9 µM (inactive)
Malme-3M
  GI50: 30.5 µM (inactive)
MCF7
  GI50: 44.4 µM (inactive)
DU-145
  GI50: 64 µM (inactive)
MDA-MB-231
  GI50: 22.1 µM (inactive)
CAKI-1
  GI50: 49 µM (inactive)
LOX IMVI
  GI50: 18.7 µM (inactive)
HL-60
  GI50: 28 µM (inactive)
HCC 2998
  GI50: 27.7 µM (inactive)
ACHN
  GI50: 31.4 µM (inactive)
HOP-92
  GI50: 23.5 µM (inactive)
A549
  GI50: 42.7 µM (inactive)
SNB-19
  GI50: 28.6 µM (inactive)
SK-OV-3
  GI50: 23.2 µM (inactive)
EKVX
  GI50: 40.3 µM (inactive)
UACC-62
  GI50: 18.7 µM (inactive)
SNB-75
  GI50: 26.7 µM (inactive)
HCT-116
  GI50: 29.7 µM (inactive)
NCI-H23
  GI50: 48.9 µM (inactive)
SR
  GI50: 25.1 µM (inactive)
SN12C
  GI50: 33.4 µM (inactive)
SW-620
  GI50: 40.9 µM (inactive)
SF-268
  GI50: 64.4 µM (inactive)
T47D
  GI50: 30.2 µM (inactive)
OVCAR-3
  GI50: 39.9 µM (inactive)
OVCAR-5
  GI50: 36.7 µM (inactive)
NCI-H226
  GI50: 24.5 µM (inactive)
SF-539
  GI50: 23.3 µM (inactive)
TK-10
  GI50: 58.7 µM (inactive)
HCT-15
  GI50: 51.1 µM
SK-MEL-5
  GI50: 17.5 µM (inactive)
K562
  GI50: 23.4 µM (inactive)
COLO 205
  GI50: 18.3 µM (inactive)
MOLT-4
  GI50: 19 µM (inactive)
CCRF-CEM
  GI50: 22.4 µM (inactive)
M14
  GI50: 19.9 µM (inactive)
MDA-MB-435
  GI50: 22.1 µM (inactive)
OVCAR-4
  GI50: 24 µM (inactive)
A498
  GI50: 32.9 µM (inactive)
OVCAR-8
  GI50: 39.3 µM (inactive)
NCI-H460
  GI50: 32.7 µM (inactive)
KM12
  GI50: 34.7 µM (inactive)
IGROV-1
  GI50: 33.7 µM (inactive)
SF-295
  GI50: 24.4 µM (inactive)
UACC-257
  GI50: 39.5 µM (inactive)
RPMI-8226
  GI50: 21.8 µM (inactive)
Hs-578T
  GI50: 19.2 µM (inactive)
PC-3
  GI50: 37.5 µM (inactive)
HT-29
  GI50: 36.5 µM (inactive)
